Data as given in ChEMBL document CHEMBL4393714, “Multi-targeting protein-protein interaction inhibitors: Evolution of macrocyclic ligands with embedded carbohydrates (MECs) to improve selectivity” (Eur J Med Chem, 2019).

Experiments:
[1] = molecular target: Sodium-dependent dopamine transporter (Homo sapiens) (UniProt Q01959); experiment: Displacement of [3H] BTCP from human recombinant dopamine […] at 10 uM measured after 120 mins by scintillation counter method relative to control
Rattus norvegicus [2] = organism: Rattus norvegicus; experiment: Displacement of [3H] TBPS from rat GABA gated chloride channel at 10 uM measured after 120 mins by scintillation counter method relative to control
Rattus norvegicus [3] = organism: Rattus norvegicus; experiment: Displacement of [125I]alpha dendrotoxin from rat potassium channel at 10 uM measured after 60 mins by scintillation counter method relative to control
[4] = molecular target: Cav1.2 (L-type calcium channel subunit alpha-1C) (Rattus norvegicus, UniProt P22002); experiment: Displacement of [3H] D888 from rat Cav1.2 (L-type) at 10 uM measured after 120 mins by scintillation counter method relative to control; conditions: probe [3H] D888
Sequence of Cav1.2 (L-type calcium channel subunit alpha-1C) (P22002 whole entry): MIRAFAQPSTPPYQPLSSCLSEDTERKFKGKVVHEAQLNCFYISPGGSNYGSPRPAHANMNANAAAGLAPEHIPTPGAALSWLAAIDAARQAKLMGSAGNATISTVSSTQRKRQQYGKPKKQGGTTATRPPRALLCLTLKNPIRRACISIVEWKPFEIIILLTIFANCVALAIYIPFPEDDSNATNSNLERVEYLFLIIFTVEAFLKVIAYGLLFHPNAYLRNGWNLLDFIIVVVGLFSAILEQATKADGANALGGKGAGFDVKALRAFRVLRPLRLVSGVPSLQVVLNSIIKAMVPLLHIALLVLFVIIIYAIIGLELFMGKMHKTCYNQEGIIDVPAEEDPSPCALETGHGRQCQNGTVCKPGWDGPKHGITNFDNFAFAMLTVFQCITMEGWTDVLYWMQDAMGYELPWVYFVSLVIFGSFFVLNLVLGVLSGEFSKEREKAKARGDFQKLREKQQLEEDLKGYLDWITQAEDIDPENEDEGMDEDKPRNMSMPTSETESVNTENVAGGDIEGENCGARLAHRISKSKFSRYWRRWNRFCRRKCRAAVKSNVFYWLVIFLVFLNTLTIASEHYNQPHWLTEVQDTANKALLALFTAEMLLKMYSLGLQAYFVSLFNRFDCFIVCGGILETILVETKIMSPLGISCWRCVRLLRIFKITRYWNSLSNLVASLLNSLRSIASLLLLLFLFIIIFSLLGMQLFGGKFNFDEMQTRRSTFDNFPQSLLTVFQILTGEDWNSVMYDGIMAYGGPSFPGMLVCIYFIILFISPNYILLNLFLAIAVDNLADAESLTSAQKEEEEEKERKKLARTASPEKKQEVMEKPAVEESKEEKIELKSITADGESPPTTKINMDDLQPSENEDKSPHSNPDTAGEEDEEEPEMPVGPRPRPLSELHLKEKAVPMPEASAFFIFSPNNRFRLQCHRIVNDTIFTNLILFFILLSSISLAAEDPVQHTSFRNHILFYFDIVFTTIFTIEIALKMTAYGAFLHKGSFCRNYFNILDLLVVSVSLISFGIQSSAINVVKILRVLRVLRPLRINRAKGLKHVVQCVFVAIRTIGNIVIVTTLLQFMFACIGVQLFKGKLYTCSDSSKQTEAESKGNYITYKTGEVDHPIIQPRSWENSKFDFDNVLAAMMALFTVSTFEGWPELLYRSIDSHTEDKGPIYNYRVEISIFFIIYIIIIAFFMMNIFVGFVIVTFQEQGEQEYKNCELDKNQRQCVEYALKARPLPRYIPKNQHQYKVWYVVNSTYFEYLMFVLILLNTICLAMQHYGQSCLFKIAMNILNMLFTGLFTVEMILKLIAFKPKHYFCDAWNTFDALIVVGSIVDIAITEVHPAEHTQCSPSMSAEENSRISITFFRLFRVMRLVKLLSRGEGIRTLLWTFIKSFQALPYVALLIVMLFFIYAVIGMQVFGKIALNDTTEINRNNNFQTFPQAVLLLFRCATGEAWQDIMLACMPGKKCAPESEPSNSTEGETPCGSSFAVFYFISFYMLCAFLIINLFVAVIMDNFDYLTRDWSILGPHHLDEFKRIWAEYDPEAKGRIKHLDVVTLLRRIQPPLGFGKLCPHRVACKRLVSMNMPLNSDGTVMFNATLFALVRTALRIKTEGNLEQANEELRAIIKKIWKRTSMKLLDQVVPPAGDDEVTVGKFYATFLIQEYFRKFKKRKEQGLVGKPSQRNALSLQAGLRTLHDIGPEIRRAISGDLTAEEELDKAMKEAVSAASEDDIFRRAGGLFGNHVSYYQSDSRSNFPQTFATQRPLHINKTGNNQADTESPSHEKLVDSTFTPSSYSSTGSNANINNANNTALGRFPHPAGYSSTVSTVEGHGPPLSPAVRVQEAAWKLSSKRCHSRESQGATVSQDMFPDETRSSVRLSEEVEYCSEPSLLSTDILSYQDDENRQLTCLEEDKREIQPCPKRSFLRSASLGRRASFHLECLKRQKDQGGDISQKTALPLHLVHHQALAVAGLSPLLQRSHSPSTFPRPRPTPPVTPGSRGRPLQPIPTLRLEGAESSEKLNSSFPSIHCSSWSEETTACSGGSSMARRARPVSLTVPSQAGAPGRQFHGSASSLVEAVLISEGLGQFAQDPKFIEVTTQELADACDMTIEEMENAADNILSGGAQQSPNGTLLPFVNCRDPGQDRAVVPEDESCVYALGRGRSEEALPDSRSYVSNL

[5] = molecular target: Vasoactive intestinal polypeptide receptor 1 (Homo sapiens) (UniProt P32241); experiment: Displacement of [125I] VIP from human recombinant VPAC1 receptor at 10 uM measured after 60 mins by scintillation counter method relative to control
Sequence of Vasoactive intestinal polypeptide receptor 1 (Homo sapiens) (P32241 whole entry): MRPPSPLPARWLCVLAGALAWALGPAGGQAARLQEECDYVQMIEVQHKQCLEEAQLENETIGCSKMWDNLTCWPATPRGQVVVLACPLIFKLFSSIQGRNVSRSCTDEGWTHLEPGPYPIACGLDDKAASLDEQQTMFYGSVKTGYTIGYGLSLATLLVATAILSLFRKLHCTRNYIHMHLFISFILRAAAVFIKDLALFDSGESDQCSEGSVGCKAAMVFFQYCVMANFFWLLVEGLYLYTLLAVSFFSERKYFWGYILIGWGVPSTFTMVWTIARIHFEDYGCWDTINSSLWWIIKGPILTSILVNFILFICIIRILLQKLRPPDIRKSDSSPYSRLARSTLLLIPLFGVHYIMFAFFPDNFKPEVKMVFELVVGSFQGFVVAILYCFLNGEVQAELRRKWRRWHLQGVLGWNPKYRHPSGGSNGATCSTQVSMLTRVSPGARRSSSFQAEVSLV

[6] = molecular target: Somatostatin receptor type 1 (Homo sapiens) (UniProt P30872); experiment: Displacement of [125I] tyr11-somatostatin-14 from human recombinant somatostatin receptor type1 at 10 uM measured after 180 mins by scintillation counter method relative to control
[7] = molecular target: 5-hydroxytryptamine receptor 6 (Homo sapiens) (UniProt P50406); experiment: Displacement of [3H]LSD from human recombinant 5-HT6 receptor at 10 uM measured after 120 mins by scintillation counter method relative to control
[8] = molecular target: 5-hydroxytryptamine receptor 2B (Homo sapiens, UniProt P41595); experiment: Displacement of [125I](+/-)DOI from human recombinant 5-HT2B receptor at 10 uM measured after 60 mins by scintillation counter method relative to control
Sequence of 5-hydroxytryptamine receptor 2B (P41595 whole entry): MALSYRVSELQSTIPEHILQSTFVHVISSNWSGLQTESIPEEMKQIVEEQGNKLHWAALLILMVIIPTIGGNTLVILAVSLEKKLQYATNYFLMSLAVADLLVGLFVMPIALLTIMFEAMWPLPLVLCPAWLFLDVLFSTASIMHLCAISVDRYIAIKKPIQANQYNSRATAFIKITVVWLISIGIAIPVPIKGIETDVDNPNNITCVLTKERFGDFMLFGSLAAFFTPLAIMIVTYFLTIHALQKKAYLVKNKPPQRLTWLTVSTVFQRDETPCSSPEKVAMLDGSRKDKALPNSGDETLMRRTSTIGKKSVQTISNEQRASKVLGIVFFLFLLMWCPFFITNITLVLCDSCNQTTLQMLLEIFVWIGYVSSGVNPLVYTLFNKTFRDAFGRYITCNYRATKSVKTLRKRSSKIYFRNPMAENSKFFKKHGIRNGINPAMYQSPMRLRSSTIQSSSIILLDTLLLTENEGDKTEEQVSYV

[9] = molecular target: Nociceptin receptor (Homo sapiens) (UniProt P41146); experiment: Displacement of [3H]nociceptin from human recombinant ORL1 at 10 uM measured after 60 mins by scintillation counter method relative to control
[10] = molecular target: Mu-type opioid receptor (Homo sapiens) (UniProt P35372); experiment: Displacement of [3H] DAMGO from human recombinant mu opioid receptor at 10 uM measured after 120 mins by scintillation counter method relative to control
Sequence of Mu-type opioid receptor (Homo sapiens) (P35372 whole entry): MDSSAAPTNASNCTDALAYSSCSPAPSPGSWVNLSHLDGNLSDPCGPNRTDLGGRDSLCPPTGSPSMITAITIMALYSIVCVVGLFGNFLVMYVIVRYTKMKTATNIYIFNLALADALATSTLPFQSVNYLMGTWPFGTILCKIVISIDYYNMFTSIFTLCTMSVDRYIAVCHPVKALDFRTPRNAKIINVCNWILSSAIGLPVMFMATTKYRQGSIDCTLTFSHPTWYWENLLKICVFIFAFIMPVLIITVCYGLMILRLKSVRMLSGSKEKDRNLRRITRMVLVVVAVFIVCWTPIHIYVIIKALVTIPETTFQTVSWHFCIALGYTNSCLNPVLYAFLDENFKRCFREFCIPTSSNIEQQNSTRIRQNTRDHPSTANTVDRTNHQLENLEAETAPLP

[11] = molecular target: Neuropeptide Y receptor type 2 (Homo sapiens) (UniProt P49146); experiment: Displacement of [125I] peptide YY from human neuropeptide Y2 receptor at 10 uM measured after 60 mins by scintillation counter method relative to control
Sequence of Neuropeptide Y receptor type 2 (Homo sapiens) (P49146 whole entry): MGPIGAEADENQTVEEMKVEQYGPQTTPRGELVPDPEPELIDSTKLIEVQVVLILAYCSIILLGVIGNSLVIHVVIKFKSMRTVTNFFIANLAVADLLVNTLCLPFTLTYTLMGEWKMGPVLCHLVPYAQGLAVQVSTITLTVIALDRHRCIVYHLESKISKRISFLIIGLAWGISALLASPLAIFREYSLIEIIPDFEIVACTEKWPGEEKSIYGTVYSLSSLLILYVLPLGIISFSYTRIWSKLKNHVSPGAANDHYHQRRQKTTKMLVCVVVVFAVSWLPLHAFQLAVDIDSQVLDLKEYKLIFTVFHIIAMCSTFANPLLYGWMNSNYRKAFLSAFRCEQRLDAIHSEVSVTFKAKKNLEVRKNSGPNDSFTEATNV

[12] = molecular target: Melatonin receptor type 1A (Homo sapiens) (UniProt P48039); experiment: Displacement of [125I]2-iodomelatonin from human recombinant MT 1 receptor at 10 uM measured after 60 mins by scintillation counter method relative to control
[13] = molecular target: Histamine H2 receptor (Homo sapiens) (UniProt P25021); experiment: Displacement of [125I]APT from human recombinant H2 receptor at 10 uM measured after 120 mins by scintillation counter method relative to control
[14] = molecular target: C-X-C chemokine receptor type 2 (Homo sapiens) (UniProt P25025); experiment: Displacement of [125I]IL-8 from human recombinant CXCR2 receptor at 10 uM measured after 60 mins by scintillation counter method relative to control
Sequence of C-X-C chemokine receptor type 2 (Homo sapiens) (P25025 whole entry): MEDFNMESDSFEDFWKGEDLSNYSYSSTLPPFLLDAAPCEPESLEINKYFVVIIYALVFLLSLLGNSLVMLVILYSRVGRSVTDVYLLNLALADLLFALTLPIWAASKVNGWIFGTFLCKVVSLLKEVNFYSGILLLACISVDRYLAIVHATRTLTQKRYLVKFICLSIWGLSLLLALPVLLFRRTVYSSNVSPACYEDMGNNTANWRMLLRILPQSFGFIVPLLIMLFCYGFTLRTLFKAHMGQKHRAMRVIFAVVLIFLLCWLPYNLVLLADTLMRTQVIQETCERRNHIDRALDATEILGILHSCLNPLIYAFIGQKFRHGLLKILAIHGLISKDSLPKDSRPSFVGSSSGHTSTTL

[15] = molecular target: Endothelin-1 receptor (Homo sapiens) (UniProt P25101); experiment: Displacement of [125I]endothelin-1 from human recombinant ETA receptor at 10 uM measured after 120 mins by scintillation counter method relative to control
[16] = molecular target: D(2) dopamine receptor (Homo sapiens) (UniProt P14416); experiment: Displacement of [3H]methyl-spiperone from human recombinant D2S receptor at 10 uM measured after 60 mins by scintillation counter method relative to control
[17] = molecular target: Type-1 angiotensin II receptor (Homo sapiens) (UniProt P30556); experiment: Displacement of [125I][Sar1,Ile8]-AT-II from human recombinant AT1 receptor at 10 uM measured after 120 mins by scintillation counter method relative to control
[18] = molecular target: Adenosine receptor A2a (Homo sapiens) (UniProt P29274); experiment: Displacement of [3H]CGS 21680 from human recombinant A2A receptor at 10 uM measured after 120 mins by scintillation counter method relative to control
[19] = molecular target: Adenosine receptor A1 (Homo sapiens) (UniProt P30542); experiment: Displacement of [3H]DPCPX from human recombinant A1 receptor at 10 uM measured after 60 mins by scintillation counter method relative to control
Sequence of Adenosine receptor A1 (Homo sapiens) (P30542 whole entry): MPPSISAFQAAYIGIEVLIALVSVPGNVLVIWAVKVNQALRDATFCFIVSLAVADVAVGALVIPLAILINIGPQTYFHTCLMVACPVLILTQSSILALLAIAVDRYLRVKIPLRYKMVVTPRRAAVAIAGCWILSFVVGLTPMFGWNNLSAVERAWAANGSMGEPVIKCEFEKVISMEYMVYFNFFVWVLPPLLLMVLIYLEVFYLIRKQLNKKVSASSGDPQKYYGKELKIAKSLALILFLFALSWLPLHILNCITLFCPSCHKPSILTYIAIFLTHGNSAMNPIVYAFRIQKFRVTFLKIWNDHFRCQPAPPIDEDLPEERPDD

Substance-K receptor = molecular target: T1, Substance-K receptor (Homo sapiens, UniProt P21452); experiment: Displacement of [125I]NKA from human recombinant NK2 receptor measured after 60 mins by scintillation counter method
T1 sequence (P21452 whole entry): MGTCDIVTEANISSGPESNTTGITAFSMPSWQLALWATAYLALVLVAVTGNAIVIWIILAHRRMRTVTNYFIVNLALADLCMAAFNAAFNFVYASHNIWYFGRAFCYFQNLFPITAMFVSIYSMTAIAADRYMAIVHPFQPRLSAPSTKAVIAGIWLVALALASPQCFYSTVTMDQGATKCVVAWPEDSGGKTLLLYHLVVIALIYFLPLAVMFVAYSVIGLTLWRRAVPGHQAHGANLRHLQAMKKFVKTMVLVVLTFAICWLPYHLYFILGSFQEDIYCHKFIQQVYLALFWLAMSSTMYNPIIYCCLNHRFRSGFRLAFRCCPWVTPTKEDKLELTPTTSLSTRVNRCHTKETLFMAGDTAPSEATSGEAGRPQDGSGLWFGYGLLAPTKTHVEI

[20] = molecular target: T2, 5-hydroxytryptamine receptor 1A (Homo sapiens, UniProt P08908); experiment: Displacement of [3H]OH-DPAT from human recombinant 5-HT1A receptor measured after 60 mins by scintillation counter method
T2 sequence (P08908 whole entry): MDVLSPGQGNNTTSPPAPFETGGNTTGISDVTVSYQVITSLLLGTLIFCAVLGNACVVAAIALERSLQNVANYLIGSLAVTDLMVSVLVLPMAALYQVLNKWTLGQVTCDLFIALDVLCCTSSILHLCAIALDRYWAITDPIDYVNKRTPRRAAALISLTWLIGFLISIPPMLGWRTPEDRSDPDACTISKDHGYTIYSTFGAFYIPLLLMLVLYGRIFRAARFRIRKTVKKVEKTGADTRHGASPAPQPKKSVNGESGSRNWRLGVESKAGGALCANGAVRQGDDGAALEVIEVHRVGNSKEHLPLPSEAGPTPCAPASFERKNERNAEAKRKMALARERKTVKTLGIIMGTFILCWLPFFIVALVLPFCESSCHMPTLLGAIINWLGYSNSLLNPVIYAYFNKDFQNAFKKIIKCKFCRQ

[21] = molecular target: 5-hydroxytryptamine receptor 2A (Homo sapiens, UniProt P28223); experiment: Displacement of [3H] ketanserin from human recombinant 5-HT2A receptor measured after 60 mins by scintillation counter method
Sequence of 5-hydroxytryptamine receptor 2A (P28223 whole entry): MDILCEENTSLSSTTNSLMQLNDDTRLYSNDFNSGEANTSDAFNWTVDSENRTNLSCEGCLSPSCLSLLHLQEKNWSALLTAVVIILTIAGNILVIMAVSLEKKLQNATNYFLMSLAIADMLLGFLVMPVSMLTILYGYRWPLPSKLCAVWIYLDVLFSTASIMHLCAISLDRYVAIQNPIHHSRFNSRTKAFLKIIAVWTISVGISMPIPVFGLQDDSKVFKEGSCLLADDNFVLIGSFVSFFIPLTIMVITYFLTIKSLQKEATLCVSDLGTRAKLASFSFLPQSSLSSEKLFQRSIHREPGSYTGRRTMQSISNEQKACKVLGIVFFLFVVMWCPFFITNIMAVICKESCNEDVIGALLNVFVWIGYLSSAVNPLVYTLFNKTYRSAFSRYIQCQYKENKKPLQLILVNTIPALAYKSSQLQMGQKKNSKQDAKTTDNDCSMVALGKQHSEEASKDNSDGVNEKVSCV

[22] = Displacement of [3H] batrachotoxinin from rat sodium channel site 2 measured after 60 mins by scintillation counter method

SMILES: CC(C)CCO[C@@H]1[C@H]2OC(C)(C)O[C@H]2[C@H]2Cn3cc(nn3)COCCCCCCN(CCc3ccc4ccccc4c3)CC[C@H]1O2
- inhibition [1]: 64.1%
- inhibition (Rattus norvegicus [2]): 62.4%
- inhibition (Rattus norvegicus [3]): 13.4%
- inhibition at 2 h, 10 µM [4]: 90.5%
- Activity [5]: 14.8%
- inhibition [6]: 14%
- inhibition [7]: 16.1%
- inhibition [8]: 81.6%
- inhibition [9]: 9.9%
- inhibition [10]: 96.5%
- inhibition [11]: 10.8%
- inhibition [12]: 29.2%
- inhibition [13]: 27.4%
- inhibition [14]: 20.9%
- Activity [15]: 7.1%
- inhibition [16]: 59.6%
- inhibition [17]: 17.2%
- inhibition [18]: 14.6%
- inhibition [19]: 19%
- IC50 (Substance-K receptor): 260 nM
- Ki (Substance-K receptor): 140 nM
- IC50 [20]: 490 nM
- Ki [20]: 310 nM
- IC50 [21]: 1800 nM
- Ki [21]: 970 nM
- IC50 [22]: 120 nM
- Ki [22]: 100 nM
